# Assay results published in patent US20230109839A1, “THERAPEUTIC AGENT FOR TAUOPATHIES” (SUMITOMO PHARMA CO., LTD., priority 2020, published 2023).
# Target: T1, human Nav1.1 (Homo sapiens, UniProt P35498)
# T1 construct: host or cells: HEK293
# Experiment: Amplification of Nav1.1-derived voltage-gated sodium current (Nav1.1 current), automated patch clamp (Test 1)
# Assay type: cell-based
# Conditions: Concentration for evaluation 1 μM; HEK293 cell line stably expressing human Nav1.1
# Summary of the method: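 HEK293 cells stably expressing human Nav1.1, restricted to cells with >500 pA current, were recorded by automated voltage-clamp patch clamp with a ramp voltage stimulus. Compounds were applied in HEPES-buffered extracellular solution with 1% DMSO. Amplification (%) = 100×(peak or AUC after/before compound)−100.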
row,SMILES,Nav1.1 current amplification rate (%)
1,CC1CC=C(c2ccc(=O)n(CC(=O)N3CCc4c(CNC5CCOCC5)cccc43)n2)CC1 (centres unmarked) [Example 317],41
2,CCC1(C)CCN(c2ncc3cnn(CC(=O)Nc4ccn5ncnc5c4)c3n2)CC1 [Example 789],36
3,CC1CCN(c2ncc3cnn(CC(=O)Nc4ccn5ncnc5c4)c3n2)CC1 [Example 763],98
4,CO[C@H]1CCN(Cc2cccc3c2CCN3C(=O)Cn2nc(C3=CCC(C)CC3)ccc2=O)C1 (some centres unmarked) [Example 272],127
5,CC1CC=C(c2ccc(=O)n(CC(=O)N3CCc4c3ccnc4N3CCOCC3)n2)CC1 (centres unmarked) [Example 319],134
6,CC1CC=C(c2ccc(=O)n(CC(=O)Nc3cnc4nccn4c3)n2)CC1 (centres unmarked) [Example 337],52
7,CC1CC=C(c2ccc(=O)n(CC(=O)Nc3ccn4cnnc4c3)n2)CC1 (centres unmarked) [Example 358],71
8,CC1CC=C(c2ccc(=O)n(CC(=O)Nc3cncc(C4=CCOC4)c3)n2)CC1 (centres unmarked) [Example 381],153
9,CN(C)c1nc2cc(NC(=O)Cn3ncc4ncc(N(C)C5CCCC5)nc43)ccc2o1 [Example 674],62
10,CN(c1cnc2cnn(CC(=O)Nc3ccc(C#N)nc3)c2n1)C1CC1 [Example 709],44
11,CC1CC=C(c2ccc(=O)n(CC(=O)Nc3ccc4nccn4c3)n2)CC1 (centres unmarked) [Example 343],44
12,CC1(C)CC=C(c2ccc(=O)n(CC(=O)N3CCc4c(N5CCOCC5)cccc43)n2)CC1 [Example 432],280
13,O=C(Cn1nc(-c2cc(Cl)cs2)ccc1=O)Nc1ccn2ccnc2c1 [Example 467],80

# Same assay, conditions: Concentration for evaluation 3 μM; HEK293 cell line stably expressing human Nav1.1
row,SMILES,Nav1.1 current amplification rate (%)
1,COc1cc(N2CCN(C(=O)Cn3nc(C4=CCC(C)CC4)ccc3=O)CC2)ccc1F (centres unmarked) [Example 413],27
2,COc1ncc(N2CCN(C(=O)Cn3nc(C4=CCC(C)CC4)ccc3=O)CC2)cc1F (centres unmarked) [Example 409],244
3,CC1CC=C(c2ccc(=O)n(CC(=O)Nc3ccc4oc(CN5CCOCC5)nc4c3)n2)CC1 (centres unmarked) [Example 331],64
4,CC1CC=C(c2ccc(=O)n(CC(=O)N3CCc4c(C5=CCNC5)cccc43)n2)CC1 (centres unmarked) [Example 265],110

# Same assay, conditions: Concentration for evaluation 10 μM; HEK293 cell line stably expressing human Nav1.1
row,SMILES,Nav1.1 current amplification rate (%)
1,Cc1cc(C2=CCC(C)(C)CC2)nn(CC(=O)Nc2ccn3ccnc3c2)c1=O [Example 460],221
2,CC1CCN(c2ccc(=O)n(CC(=O)Nc3cccc(-n4ccnc4)c3)n2)CC1 [Example 67],177
3,N#Cc1ccc(NC(=O)Cn2nc(N3CCC4(CC3)CC4)ccc2=O)cc1 [Example 17],212
4,CC1CC=C(c2ccc(=O)n(CC(=O)NC3CCN(c4ccccc4)CC3)n2)CC1 (centres unmarked) [Example 368],18
5,CC1CCN(c2ccc(=O)n(CC(=O)Nc3ccn4nccc4c3)n2)CC1 [Example 71],131
6,N#Cc1ccc(NC(=O)Cn2nc(N3CCC4(CCCC4)C3)ccc2=O)cc1 [Example 24],286
7,N#Cc1ccc(NC(=O)Cn2nc(N3CCC4(CC3)COC4)ccc2=O)cc1 [Example 27],5
8,Cc1ccc(-c2ccc(=O)n(CC(=O)Nc3cncnc3)n2)cc1 [Example 141],46
9,CC1CCN(c2ccc(=O)n(CC(=O)Nc3ccc4ncn(C)c4c3)n2)CC1 [Example 85],15
10,Cc1noc2cc(NC(=O)Cn3nc(C4=CCC(C)CC4)ccc3=O)ccc12 (centres unmarked) [Example 240],241
11,CC1CC=C(c2ccc(=O)n(CC(=O)N3CCc4cc(N5CCOCC5)ccc43)n2)CC1 (centres unmarked) [Example 246],136
12,CC1CC=C(c2ccc(=O)n(CC(=O)N3CC=C(c4ccccn4)CC3)n2)CC1 (centres unmarked) [Example 420],39
13,N#Cc1ccc(NC(=O)Cn2nc(N3CCC(F)(F)CC3)ccc2=O)cc1 [Example 5],6
14,Cc1c(N2CCC(C)CC2)nn(CC(=O)Nc2ccc(C#N)cc2)c(=O)c1C [Example 35],301
15,Cc1cc(NC(=O)Cn2nc(N3CCC(C)CC3)ccc2=O)cc2ncoc12 [Example 96],105
16,O=C(Cn1nc(C2=CCCCC2)ccc1=O)Nc1ccn2ccnc2c1 [Example 458],24
17,CC1(C)CC=C(c2ccc(=O)n(CC(=O)Nc3ccc(C#N)cc3)n2)CC1 [Example 42],216
18,CC1CCN(c2ccc(=O)n(CC(=O)Nc3cncc(C(F)(F)F)c3)n2)CC1 [Example 61],77
19,CC1CC=C(c2ccc(=O)n(CC(=O)Nc3ccc(C#N)cc3)n2)CC1 (centres unmarked) [Example 41],324
20,N#Cc1ccc(NC(=O)Cn2nc(N3CCCCCCC3)ccc2=O)cc1 [Example 12],241
21,CC1CC=C(c2ccc(=O)n(CC(=O)N3CCC(Cc4ccccc4)C3)n2)CC1 (centres unmarked) [Example 389],53
22,N#Cc1ccc(NC(=O)Cn2nc(N3CCC4(CC4)C3)ccc2=O)cc1 [Example 25],163
23,Cc1noc2cc(NC(=O)Cn3nc(N4CCC(C)CC4)ccc3=O)ccc12 [Example 84],315
24,CC1CC=C(c2ccc(=O)n(CC(=O)N3CCc4c(N5CCOCC5)cccc43)n2)C1 (centres unmarked) [Example 477],398
25,N#Cc1ccc(NC(=O)Cn2nc(N3CCC4(CC3)CC(F)(F)C4)ccc2=O)cc1 [Example 32],60
26,COc1cc(=O)n(CC(=O)Nc2ccn3ccnc3c2)nc1C1=CCC(C)(C)CC1 [Example 459],118

# Same assay, conditions: Concentration for evaluation 50 μM; HEK293 cell line stably expressing human Nav1.1
row,SMILES,Nav1.1 current amplification rate (%)
1,CN(c1cnc2cnn(CC(=O)Nc3ccc4cccnc4n3)c2n1)C1CC1 [Example 712],78
2,Cc1ccc(-c2ncc3cnn(CC(=O)Nc4ccn5ncnc5c4)c3n2)o1 [Example 772],35
3,CC1CC=C(c2ccc(=O)n(CC(=O)N3CCN(c4ccn(C)n4)CC3)n2)CC1 (centres unmarked) [Example 412],36
4,Cc1cc2nc(NC(=O)Cn3nc(C4=CCC(C)CC4)ccc3=O)ccn2n1 (centres unmarked) [Example 340],41

# Same assay, conditions: HEK293, Concentration for evaluation 1 μM; HEK293 cell line stably expressing human Nav1.1; read-out: Nav1.1 current amplification rate (%)
row,SMILES,activation at 1 µM [%]
1,CC1CC=C(c2cnc3cnn(CC(=O)N4CCN(c5cccnc5)CC4)c3n2)CC1 (centres unmarked) [Example 740],91
2,"Cc1cnc(-c2cnc3cnn(CC(=O)Nc4ccn5ncnc5c4)c3n2)s1 [Example 575, 2-[6-(5-Methyl-1,3-thiazol-2-yl)-1H-pyrazolo[3,4-b]pyrazin-1-yl]-N-([1,2,4]triazolo[1,5-a]pyridin-7-yl)acetamide]",84

# Same assay, conditions: HEK293, concentration for evaluation 1 μM; HEK293 stably expressing human Nav1.1; read-out: Nav1.1 current amplification rate (%)
row,SMILES,activation at 1 µM [%]
1,Cc1cc(NC(=O)Cn2ncc3cnc(N(C)C4CC4)nc32)cc2ncnn12 [Example 836],19

# Same assay, conditions: HEK293, concentration for evaluation 10 μM; HEK293 stably expressing human Nav1.1; read-out: Nav1.1 current amplification rate (%)
row,SMILES,activation at 10 µM [%]
1,CC1CC=C(c2ccc3cnn(CC(=O)N4CCN(c5cccnc5)CC4)c3c2)CC1 (centres unmarked) [Example 893],31

# Same assay, conditions: concentration for evaluation 1 μM; HEK293 stably expressing human Nav1.1
row,SMILES,Nav1.1 current amplification rate (%)
1,CN(c1ccc2cnn(CC(=O)Nc3ccn4ncnc4c3)c2n1)C1CCCC1 [Example 862],97
2,O=C(Cn1ncc2ccc(C3=CCC(F)(F)CC3)nc21)Nc1ccn2ncnc2c1 [Example 860],50
3,O=C(Cn1ncc2ccc(-c3ccc(F)cc3F)nc21)Nc1ccn2ccnc2c1 [Example 865],14
4,O=C(Cn1ncc2ccc(C3=COCCC3)nc21)Nc1ccn2ccnc2c1 [Example 869],17
5,O=C(Cn1ncc2cnc(N3CCC4(CCC4)C3)nc21)Nc1ccc2cncnc2c1 [Example 807],86
6,CC(C)CN(C)c1ccc2cnn(CC(=O)Nc3ccn4ncnc4c3)c2n1 [Example 861],78
7,CN(CC1CCC1)c1ccc2cnn(CC(=O)Nc3ccc4ncnn4c3)c2n1 [Example 873],89

# Same assay, conditions: concentration for evaluation 10 μM; HEK293 stably expressing human Nav1.1
row,SMILES,Nav1.1 current amplification rate (%)
1,CC1(C)CCN(c2ncc3cnn(CC(=O)Nc4ccc5cncnc5c4)c3n2)CC1 [Example 809],64
